Laboratory results taken from ChEMBL document CHEMBL1201862, “PubChem BioAssay data set” (2004).
Activity calls are given as the source filed them.

Columns and labels:
Vero [1] = test: host cell cytotoxicity of antiviral hits, dose response, cytotoxicity control for West Nile virus antiviral project, secondary assay (AID 1650); assay type: functional; settings: Chlorocebus sabaeus
Procathepsin L = Procathepsin L (Homo sapiens, UniProt P07711); test: cathepsin L inhibitors, dose response, counter-screen for M1/M17 aminopeptidase inhibitor project, biochemical, QFRET, 1536-well (AID 2214)
Procathepsin L, sequence (P07711 whole entry): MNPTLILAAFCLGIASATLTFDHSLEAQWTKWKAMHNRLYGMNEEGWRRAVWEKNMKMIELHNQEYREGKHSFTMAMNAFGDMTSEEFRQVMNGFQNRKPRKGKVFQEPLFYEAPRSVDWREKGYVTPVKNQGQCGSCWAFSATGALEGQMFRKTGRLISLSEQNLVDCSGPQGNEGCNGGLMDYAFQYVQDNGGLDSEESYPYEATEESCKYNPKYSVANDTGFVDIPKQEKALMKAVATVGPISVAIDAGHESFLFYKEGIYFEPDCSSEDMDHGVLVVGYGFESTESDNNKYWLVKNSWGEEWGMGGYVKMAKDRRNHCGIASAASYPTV

Aminopeptidase N = target: T1, Aminopeptidase N (Plasmodium falciparum FcB1/Columbia, UniProt O96935); test: P. falciparum M1AAP inhibitors, biochemical, fluorogenic H-Leu-NHMec substrate, 1536-well (AID 1445); set-up: species or system Plasmodium falciparum 3D7, 3D7
T1 sequence (O96935 whole entry): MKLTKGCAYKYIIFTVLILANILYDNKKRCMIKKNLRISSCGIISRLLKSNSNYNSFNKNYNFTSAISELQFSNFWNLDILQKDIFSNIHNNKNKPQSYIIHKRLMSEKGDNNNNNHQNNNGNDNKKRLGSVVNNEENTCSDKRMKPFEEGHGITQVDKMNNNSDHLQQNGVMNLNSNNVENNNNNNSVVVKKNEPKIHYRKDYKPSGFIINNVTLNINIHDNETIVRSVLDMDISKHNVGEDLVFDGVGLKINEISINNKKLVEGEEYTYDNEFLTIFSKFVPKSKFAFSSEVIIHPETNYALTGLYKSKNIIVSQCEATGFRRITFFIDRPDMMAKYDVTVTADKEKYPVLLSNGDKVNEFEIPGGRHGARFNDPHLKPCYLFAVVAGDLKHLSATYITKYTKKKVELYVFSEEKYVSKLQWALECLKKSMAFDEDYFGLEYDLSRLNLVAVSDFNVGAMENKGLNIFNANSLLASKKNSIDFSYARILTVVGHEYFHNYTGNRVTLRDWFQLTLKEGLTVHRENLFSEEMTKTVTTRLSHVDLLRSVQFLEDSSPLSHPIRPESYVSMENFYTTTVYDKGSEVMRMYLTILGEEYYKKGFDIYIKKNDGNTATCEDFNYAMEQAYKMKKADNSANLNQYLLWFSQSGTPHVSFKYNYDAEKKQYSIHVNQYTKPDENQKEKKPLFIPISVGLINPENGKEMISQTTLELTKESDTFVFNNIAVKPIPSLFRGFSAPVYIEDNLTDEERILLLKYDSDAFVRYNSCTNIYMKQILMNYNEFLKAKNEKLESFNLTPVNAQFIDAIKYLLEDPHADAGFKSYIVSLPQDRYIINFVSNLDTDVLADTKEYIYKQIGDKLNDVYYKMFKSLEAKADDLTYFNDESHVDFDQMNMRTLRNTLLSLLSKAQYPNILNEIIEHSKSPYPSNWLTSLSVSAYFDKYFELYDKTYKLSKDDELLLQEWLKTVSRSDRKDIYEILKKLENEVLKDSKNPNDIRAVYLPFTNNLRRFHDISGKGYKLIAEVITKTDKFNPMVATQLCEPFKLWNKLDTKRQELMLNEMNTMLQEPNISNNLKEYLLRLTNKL

Aspartyl aminopeptidase = target: T2, Aspartyl aminopeptidase (Plasmodium falciparum 3D7, UniProt Q8I2J3); test: Counterscreen for inhibitors of M1 and M17 aminopeptidases: QFRET-based biochemical high throughput dose response assay for inhibitors of the Plasmodium falciparum M18 Aspartyl Aminopeptidase (PFM18AAP). [Related PubChem assays: 1619 (Screening assay (M17LAP inhibitors).), 1445 (Screening assay (M1AAP inhibitors).)]
T2 sequence (Q8I2J3 whole entry): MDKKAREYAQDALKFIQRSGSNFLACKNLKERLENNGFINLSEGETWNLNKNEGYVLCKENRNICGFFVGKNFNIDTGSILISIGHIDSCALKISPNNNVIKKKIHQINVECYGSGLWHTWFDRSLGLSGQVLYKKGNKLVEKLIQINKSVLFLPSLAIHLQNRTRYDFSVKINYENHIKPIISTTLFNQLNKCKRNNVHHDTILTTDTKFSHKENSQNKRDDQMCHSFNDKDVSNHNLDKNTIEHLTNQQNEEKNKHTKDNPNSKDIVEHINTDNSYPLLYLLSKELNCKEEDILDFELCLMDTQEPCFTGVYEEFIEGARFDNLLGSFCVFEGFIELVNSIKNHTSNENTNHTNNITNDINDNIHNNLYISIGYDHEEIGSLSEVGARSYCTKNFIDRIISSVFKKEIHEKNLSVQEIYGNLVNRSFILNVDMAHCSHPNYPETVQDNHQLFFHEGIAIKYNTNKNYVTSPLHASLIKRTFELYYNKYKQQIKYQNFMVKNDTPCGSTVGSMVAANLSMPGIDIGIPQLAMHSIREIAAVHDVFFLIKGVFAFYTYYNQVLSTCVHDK

[2] = HEp-2 cell cytotoxicity, dose response, cytotoxicity control for RSV inhibitor project, HTS (AID 2410); assay type: functional; settings: human respiratory syncytial virus
[3] = target: T3, High affinity choline transporter 1 (Homo sapiens, UniProt Q9GZV3); test: CHT inhibitors, dose response, cell-based, 5-point CRC, membrane potential dye (AID 504840); assay type: functional
T3 sequence (Q9GZV3 whole entry): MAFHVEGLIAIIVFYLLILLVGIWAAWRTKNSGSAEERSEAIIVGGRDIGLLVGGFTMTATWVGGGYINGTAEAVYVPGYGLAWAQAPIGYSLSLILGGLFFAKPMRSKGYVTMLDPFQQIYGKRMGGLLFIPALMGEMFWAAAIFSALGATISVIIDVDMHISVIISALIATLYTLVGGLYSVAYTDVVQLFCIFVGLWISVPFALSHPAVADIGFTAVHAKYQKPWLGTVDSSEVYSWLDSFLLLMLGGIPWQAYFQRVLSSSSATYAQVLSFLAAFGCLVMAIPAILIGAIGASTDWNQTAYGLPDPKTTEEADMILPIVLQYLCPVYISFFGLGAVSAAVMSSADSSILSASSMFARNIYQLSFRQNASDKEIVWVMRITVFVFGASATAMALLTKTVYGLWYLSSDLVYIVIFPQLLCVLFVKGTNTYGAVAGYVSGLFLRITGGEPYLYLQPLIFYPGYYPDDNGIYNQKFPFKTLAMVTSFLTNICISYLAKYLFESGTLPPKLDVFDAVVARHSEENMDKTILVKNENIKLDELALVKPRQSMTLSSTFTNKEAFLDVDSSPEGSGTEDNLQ

[4] = HepG2 cell cytotoxicity, dose response, cytotoxicity control for Shn3 inhibitor project, CellTiter-Glo, cherry-picked (AID 624134); assay type: functional, cell-based
Vero [5] = test: cells; assay type: functional; settings: Chlorocebus sabaeus
Protein RecA = target: T4, Protein RecA (Mycobacterium tuberculosis, UniProt P9WHJ3); test: Fluorescence Cell-Free Homogeneous Dose Retest to Identify Inhibitors of RecA-Intein Splicing Activity. [Related pubchem assays (depositor defined):AID2097, AID2223, AID489010, AID492950]; assay type: functional
T4 sequence (P9WHJ3 whole entry): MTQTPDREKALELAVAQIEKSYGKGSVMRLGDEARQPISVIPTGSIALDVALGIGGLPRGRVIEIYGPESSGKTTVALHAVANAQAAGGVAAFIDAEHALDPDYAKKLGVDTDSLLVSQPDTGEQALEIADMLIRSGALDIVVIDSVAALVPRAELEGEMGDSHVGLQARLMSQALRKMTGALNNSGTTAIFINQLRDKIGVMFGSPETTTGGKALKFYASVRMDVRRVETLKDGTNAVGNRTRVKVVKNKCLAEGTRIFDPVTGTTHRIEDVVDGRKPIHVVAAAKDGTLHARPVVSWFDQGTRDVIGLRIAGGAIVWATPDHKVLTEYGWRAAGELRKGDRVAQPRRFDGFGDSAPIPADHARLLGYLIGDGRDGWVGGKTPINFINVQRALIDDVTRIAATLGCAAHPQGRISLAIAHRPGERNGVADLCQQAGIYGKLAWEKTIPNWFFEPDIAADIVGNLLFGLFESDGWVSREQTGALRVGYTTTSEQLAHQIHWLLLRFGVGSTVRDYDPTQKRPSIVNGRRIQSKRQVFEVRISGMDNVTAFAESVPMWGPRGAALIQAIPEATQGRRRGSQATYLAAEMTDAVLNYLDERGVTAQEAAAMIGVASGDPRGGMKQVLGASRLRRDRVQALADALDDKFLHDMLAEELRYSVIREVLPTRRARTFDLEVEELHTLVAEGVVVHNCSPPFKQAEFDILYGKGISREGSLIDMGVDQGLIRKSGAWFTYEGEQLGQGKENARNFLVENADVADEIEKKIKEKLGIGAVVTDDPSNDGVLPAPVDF

[6] = Shn3 3'UTR reporter inhibitors, dose response, cell-based, Clone20 osteoblasts, firefly luciferase, cherry-picked (AID 624132); assay type: functional;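 note: firefly luciferase luminescence from reporter carrying the Shn3 3'UTR in osteoblasts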
[7] = target: T5, Replicative DNA helicase DnaB (Mycobacterium tuberculosis, UniProt P9WMR3); test: DnaB intein splicing inhibitors, dose response, biochemical, cell-free fluorescence (AID 449749); assay type: functional
T5 sequence (P9WMR3 whole entry): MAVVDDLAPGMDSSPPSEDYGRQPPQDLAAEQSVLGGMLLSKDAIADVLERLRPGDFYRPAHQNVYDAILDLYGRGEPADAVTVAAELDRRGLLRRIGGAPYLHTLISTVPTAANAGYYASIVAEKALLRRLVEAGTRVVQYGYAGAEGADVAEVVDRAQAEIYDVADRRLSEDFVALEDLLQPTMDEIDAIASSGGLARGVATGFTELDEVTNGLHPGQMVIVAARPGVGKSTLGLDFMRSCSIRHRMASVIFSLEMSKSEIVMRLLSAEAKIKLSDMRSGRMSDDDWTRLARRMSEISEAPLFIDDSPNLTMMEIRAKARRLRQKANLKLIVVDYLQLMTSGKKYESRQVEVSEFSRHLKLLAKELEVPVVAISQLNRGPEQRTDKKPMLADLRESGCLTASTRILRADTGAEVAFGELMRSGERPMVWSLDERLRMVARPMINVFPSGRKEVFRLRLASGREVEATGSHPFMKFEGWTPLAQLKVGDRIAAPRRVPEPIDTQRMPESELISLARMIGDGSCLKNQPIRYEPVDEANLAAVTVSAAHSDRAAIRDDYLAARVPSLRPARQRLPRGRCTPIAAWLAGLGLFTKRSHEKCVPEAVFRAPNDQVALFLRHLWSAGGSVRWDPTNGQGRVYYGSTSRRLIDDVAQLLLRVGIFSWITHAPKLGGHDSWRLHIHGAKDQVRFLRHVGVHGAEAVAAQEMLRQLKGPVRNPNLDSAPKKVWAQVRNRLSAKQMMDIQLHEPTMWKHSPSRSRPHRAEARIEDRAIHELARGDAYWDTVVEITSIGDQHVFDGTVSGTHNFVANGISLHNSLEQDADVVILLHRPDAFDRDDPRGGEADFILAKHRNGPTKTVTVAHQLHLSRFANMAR

[8] = control 3'UTR Renilla luciferase suppression, dose response, counter-screen for Shn3 inhibitor project, cell-based, Clone20-Shn3RL, cherry-picked (AID 624133); assay type: functional
Leucine aminopeptidase = target: T6, Leucine aminopeptidase (Plasmodium falciparum 3D7, UniProt Q8IL11); test: P. falciparum M17LAP inhibitors, primary screen, biochemical, fluorogenic H-Leu-NHMec substrate, 1536-well (AID 1619); assay type: functional
T6 sequence (Q8IL11 whole entry): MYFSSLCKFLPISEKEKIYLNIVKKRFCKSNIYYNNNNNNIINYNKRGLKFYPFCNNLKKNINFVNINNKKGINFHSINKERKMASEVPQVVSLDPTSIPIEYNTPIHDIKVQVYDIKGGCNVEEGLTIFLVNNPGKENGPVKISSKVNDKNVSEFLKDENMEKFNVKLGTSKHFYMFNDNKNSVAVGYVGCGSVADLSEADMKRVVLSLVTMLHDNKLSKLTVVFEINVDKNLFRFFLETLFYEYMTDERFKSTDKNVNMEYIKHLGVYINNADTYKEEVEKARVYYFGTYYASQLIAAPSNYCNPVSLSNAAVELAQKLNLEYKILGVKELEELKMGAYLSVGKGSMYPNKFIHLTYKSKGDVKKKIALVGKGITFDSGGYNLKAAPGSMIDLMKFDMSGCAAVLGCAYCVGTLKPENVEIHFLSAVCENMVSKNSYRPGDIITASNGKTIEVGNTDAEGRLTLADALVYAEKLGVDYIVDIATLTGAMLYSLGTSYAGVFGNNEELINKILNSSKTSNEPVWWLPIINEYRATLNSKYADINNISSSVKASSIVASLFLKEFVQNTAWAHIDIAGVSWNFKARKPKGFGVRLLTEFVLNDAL

Genome polyprotein = Genome polyprotein (dengue virus type 2, UniProt P29990); test: Dengue-2 NS5 methyltransferase inhibitors, primary screen, biochemical, confirmation dose response (AID 588689); assay type: functional
Genome polyprotein, sequence (P29990 2492-3391 limits assumed): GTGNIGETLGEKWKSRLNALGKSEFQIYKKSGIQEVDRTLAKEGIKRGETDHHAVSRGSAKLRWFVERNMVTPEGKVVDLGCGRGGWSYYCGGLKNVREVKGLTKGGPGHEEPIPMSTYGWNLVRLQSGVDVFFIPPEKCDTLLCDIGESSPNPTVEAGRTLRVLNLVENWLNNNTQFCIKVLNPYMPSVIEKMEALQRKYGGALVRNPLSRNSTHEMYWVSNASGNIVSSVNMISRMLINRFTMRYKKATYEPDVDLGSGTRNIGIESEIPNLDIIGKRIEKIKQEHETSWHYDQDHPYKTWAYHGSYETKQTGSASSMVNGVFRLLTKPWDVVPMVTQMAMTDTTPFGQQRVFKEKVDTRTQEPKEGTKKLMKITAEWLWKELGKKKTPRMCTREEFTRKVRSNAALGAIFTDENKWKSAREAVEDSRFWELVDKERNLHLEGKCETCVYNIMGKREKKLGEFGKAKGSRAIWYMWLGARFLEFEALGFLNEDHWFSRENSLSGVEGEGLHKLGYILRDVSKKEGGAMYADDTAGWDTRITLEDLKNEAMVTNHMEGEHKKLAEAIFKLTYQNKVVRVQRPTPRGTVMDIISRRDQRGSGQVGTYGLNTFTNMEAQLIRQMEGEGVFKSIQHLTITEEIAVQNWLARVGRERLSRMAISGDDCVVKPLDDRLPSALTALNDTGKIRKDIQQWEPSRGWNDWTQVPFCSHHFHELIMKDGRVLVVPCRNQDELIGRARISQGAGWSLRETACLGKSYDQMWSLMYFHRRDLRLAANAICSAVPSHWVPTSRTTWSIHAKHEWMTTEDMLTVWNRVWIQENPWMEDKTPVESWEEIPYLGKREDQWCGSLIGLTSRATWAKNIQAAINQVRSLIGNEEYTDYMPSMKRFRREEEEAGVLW

Cc1cccc(-c2cc3nc(C)cc(NCCCN(C)C)n3n2)c1
CC50 (Vero [1]): 64.2 µM (active)

COc1ccccc1-c1nc2ccccc2c(=O)n1NC(=O)c1cccs1
IC50 (Procathepsin L): > 59.6 µM (not active) | IC50 (Aminopeptidase N): 15.8 µM (active) | IC50 (Aspartyl aminopeptidase): > 73.5 µM (not active)

Cc1cc(C)c(-n2c(C)cc(/C=C3/NC(=O)NC3=O)c2C)c(C)c1
IC50 (cells): 2.83 µM (active) | CC50 [2]: 11.2 µM (active)

COCCN(C(=O)CSc1nnc(-c2ccc(C)c(C)c2)o1)c1c(N)n(CC(C)C)c(=O)[nH]c1=O
IC50 (cells): 13.3 µM (active) | IC50 [3]: 14.8 µM (active)

CCN(CC)CCNC(=O)CSc1c2c(nc3cc(Cl)ccc13)CCCC2
AC50 [4]: > 70 µM (inactive) | CC50 (Vero [5]): > 25 µM (active) | EC50 (Protein RecA): 11.8 µM (active) | CC50 (Vero [1]): 18.8 µM (active) | AC50 [6]: 14.9 µM (active) | AC50 [7]: 241 µM (active) | AC50 [8]: 25.5 µM (active)

CCc1ccc(NC(=O)C2CC=CCC2C(=O)O)cc1 (centres undefined)
IC50 (Procathepsin L): > 59.6 µM (not active) | IC50 (Leucine aminopeptidase): 3.48 µM (active) | IC50 (Aspartyl aminopeptidase): > 73.5 µM (not active)

COc1ccc2nc(Nc3nc(O)cc(CSc4nnnn4-c4ccccc4)n3)nc(C)c2c1
CC50 (Vero [1]): > 100 µM (active)

CCOC(=O)c1c(NC(=O)C2C3C=CC(C3)C2C(=O)O)sc2c1CCC(CC)C2 (centres undefined)
IC50 (Procathepsin L): > 59.6 µM (not active) | IC50 [3]: 1.91 µM (active) | IC50 (Genome polyprotein): 42.4 µM (active) | IC50 (Leucine aminopeptidase): 7.67 µM (active) | IC50 (Aspartyl aminopeptidase): > 73.5 µM (not active)
